{"source": "patent EP4624457A1", "about": "“I[…] DERIVATIVES, I[…] NEURODEGENERATIVE DISEASES” (Centre National de la Recherche Scientifique, priority 2024, dated 2025)", "experiment_in_all_cases": "Cell viability / proliferation assay (CellTiter Glo luminescence, 72 h)", "type_in_all_cases": "cell-based", "key": {"[1]": {"system": "A2780 ovarian carcinoma cells", "experimental": "(§1) • Figure 1 represents the chemical structure of ingrilimine according to compound (Illa) formula. • Figure 2 represents the cytotoxic activity of ingrilimine. A2780 ovarian and HT29 colorectal carcinoma cells were grown in RPMI 1640 supplemented with 10% fetal calf serum (FCS) and 1% glutamine. U87-MG glioblastoma cells were grown in Dulbecco minimal essential medium containing 4.5 g/L glucose, 10% FCS and 1% glutamine at 37 °C in a humidified atmosphere containing 5% CO2. For IC50 determination, the cells were seeded in 96-well plates (3 × 10^3 cells/well) containing 90 µL of growth medium. After 24 h of culture, the cells were treated with ingrilimine at 10 different final concentrations. Cell viability was determined by luminescence after 72 h incubation. (a) Effect of ingrilimine on A2780 ovarian carcinoma cells. (b) Effect of ingrilimine on U87-MG glioblastoma cells. (c) Effect of ingrilimine on U87-MG glioblastoma cells • Figure 3a-3f represent the mitochondrial dysfunction provoked by ingrilimine. HCT116 cells were treated with ingrilimine in the range of […] for 24h and 48h. Sector Q normal cells that accumulated the JC-1 dye (fluorescence emission 590 nm). […] (a) Non-treated cells incubated with the carrier (DMSO) for 24 h. (b) HCT116 cells incubated with […] ingrilimine for 24 h. (c) HCT116 cells incubated with 250 nM ingrilimine for 24 h. (d) Non-treated cells incubated with the carrier (DMSO) for 48 h. (e) HCT116 cells incubated with […] ingrilimine for 48 h. (f) HCT116 cells incubated with 250 nM ingrilimine for 48. Changes in fluorescence emission were recorded by flow cytometry using the JC-1 mithocondrial membrane potential-dependent fluorescent dye. NT = non-treated cells; IngX = ingrilimine. • Figure 4a-4f represents phosphatidylserine exposure provoked by ingrilimine. A2780 cancer cells were incubated with ingrilimine in the range of 10-500 nM before staining with FITC-Annexin V and propidium iodide. Quadrants D1 and D2 with dead or necrotic cells, quadrant D3 with normal cells and quadrant D4 with apoptotic cells following phosphatidylserine exposure. (a) Non-treated A2780 cells incubated with the carrier (DMSO) for 24h. (b) A2780 cells incubated with 10 nM ingrilimine for 24 h. (c) A2780 cells incubated with 250 nM ingrilimine for 24 h. (d) Non-treated A2780 cells incubated with the carrier (DMSO) for 48 h. (e) A2780 cells incubated with 10 nM ingrilimine for 48 h. (f) A2780 cells incubated with 250 nM ingrilimine for 48. […] exposure in A2780 cell was quantified by flow cytometry using FITC-Annexin V. Dead or necrotic cells were detected using the vital dye propridium iodide. NT = non-treated cells; IngX = ingrilimine. • Figure 5 represents the antagonistic activity of ingrilimine (named \"IngX\" in the figure) and portimine (named \"Port A\" in the figure) against nicotinic acetylcholine receptors recorded by two-electrodes voltage clamp electrophysiology on Xenopus laevis oocytes. Clamped Xenopus laevis oocytes having incorporated the muscle (α1)2βγδ nAChR subtype from Torpedo marmorata (filled squares), or expressing the neuronal α3β2 nAChR subtype from rat (filled triangles), or expressing the human neuronal α7 nAChR subtype (filled circles) were exposed to portimine (100 nM - 1 mM) for 45 seconds. […] A Xenopus laevis oocyte expressing the human α7 nAChR subtype was exposed to 100 µM acetylcholine triggering the immediate opening of the receptor's channel (black bold line) followed by the very-fast closure of the channel ([…]) that became insensitive to acetylcholine during the rest of the 5 seconds exposure (desensitization). When a Xenopus laevis oocyte expressing the human α7 nAChR subtype was exposed first to 10 nM ingrilimine for 45 seconds and then to a mixture (Mix) containing 10 nM ingrilimine and 100 µM acetylcholine, the receptor's channel was closed denoting a strong antagonistic activity of the tested toxin against the α7 nAChR subtype (dotted line). […]"}, "[2]": {"system": "HT29 colorectal carcinoma cells", "details": "for IC50: 72 h incubation, mean ± SEM from three distinct experiments", "experimental": "as §1"}, "[3]": {"system": "U87-MG glioblastoma cells", "details": "for IC50: 72 h incubation, mean ± SEM from three distinct experiments", "experimental": "as §1"}}, "note": "Read-outs that look alike come from different tables or passages of the source."}
{"smiles": "C=CC1=C[C@@H]2C[C@@H](O)[C@@H](O)/C(C)=C/C/C(C)=C/CCC3=NCCC[C@]32CC1", "note": "[Ingrilimine, ingrilimine]", "values": [{"measurement": "IC50", "setting": "[1]; Homo sapiens, A2780, 72 h incubation, mean ± SEM from three distinct experiments, read-out: IC50 ± SEM (nM) A2780", "value": "10.6 ± 0.2", "unit": "nM"}, {"measurement": "IC50", "setting": "[1]; Homo sapiens, A2780, HT29 and U87-MG together, read-out: IC50 values, range over the three cancer cell lines tested", "value": "10 to 45", "unit": "nM"}, {"measurement": "times less potent than portimine-A to kill the A2780 ovarian cancer cells", "setting": "[1]; ratio of IC50", "value": 13, "unit": "times"}, {"measurement": "cytotoxic activity, times less potent compared to portimine-A", "setting": "[2]; HT29, ratio of IC50", "value": 5, "unit": "times"}, {"measurement": "IC50", "setting": "[2]; Homo sapiens, HT-29", "value": "34.3 ± 1.1", "unit": "nM"}, {"measurement": "IC50", "setting": "[3]; Homo sapiens, U-87 MG", "value": "44.2 ± 0.3", "unit": "nM"}, {"measurement": "cytotoxic activity, times less potent compared to portimine-A", "setting": "[3]; U87-MG, ratio of IC50", "value": 5, "unit": "times"}]}
{"smiles": "C=CC1=C[C@@H]2[C@@H]3O[C@]4(CC[C@H](O4)[C@@H](C)C[C@@H](O)C3=O)C[C@H](O)C3=NCC[C@@]32CC1", "note": "[Portimine-A]", "values": [{"measurement": "IC50", "setting": "[1]; 72 h incubation, mean ± SEM from three distinct experiments, read-out: IC50 ± SEM (nM) A2780", "value": "0.77 ± 0.1", "unit": "nM"}, {"measurement": "IC50", "setting": "[2]", "value": "6.4 ± 0.1", "unit": "nM"}, {"measurement": "IC50", "setting": "[3]", "value": "8.1 ± 7.8", "unit": "nM"}]}
